Data taken from publication PMC5719086, “Effective in vivo gene delivery with reduced toxicity, achieved by charge and fatty acid -modified cell penetrating peptide” (Scientific Reports, 2017).
Where two headings read alike, the source gives them in different places. Square brackets hold non-standard residues; d marks the D form. Peptide text beside a SMILES is read from it. * marks the point of attachment. Stearoyl = CCCCCCCCCCCCCCCCCC(=O)*; Orn = NCCC[C@H](N)C(=O)O

Columns and labels:
[1] = system: mouse RBC; assay: Hemolysis assay (activity towards cell membranes); format: cell-based; settings: 1 h 37 °C, triplicates
Protocol: The ability of the peptides to lyse the red blood cells (RBC) in PBS was used as a measure of membrane activity. To obtain fresh mouse RBC, blood was collected from the saphenous vein using sodium-heparinized (80 iu/ml ± 30%) blood collection capillaries (Marienfeld, Germany) and transferred to heparinized blood collecting tubes (Sarstedt, Germany). To isolate RBCs, the whole blood was centrifuged for 15 minutes at 300 × g, followed by removal of the plasma. The RBCs were then washed three times with 1 × PBS (RBC pelleting with 15 minutes at 300 × g). The resulting RBCs were then resuspended in PBS at 4% (v/v).
For the analysis, 200 μl of RBC suspension was added to 200 μl of peptide solution or peptide/pDNA complexes in 5% glucose (final RBC concentration 2%) and gently vortexed. The peptide/pDNA complexes were prepared using a fixed 1 μg of pDNA and varying amount of the peptide. Following this, samples were incubated for 1 hour at 37 °C with gentle stirring. After incubation, the RBCs were pelleted (15 minutes at 300 × g) and the amount of hemoglobin in the supernatant was assessed by measuring the absorbance at 540 nm using a 96-well microplate reader. The experiments were conducted in triplicates.
100% of hemolysis was defined as the RBCs treated with 0.1% Triton-X100 in PBS and 0% was obtained with cells incubated in 5% glucose solution. % of hemolysis was calculated by the formula: % Hemolysis = [(Asample − Aglucose)/Atriton − Aglucose)] × 100.

[2] = molecular target: T1, proteinase K (Parengyodontium album, UniProt P06873); assay: Proteinase K treatment of CPP/pDNA complexes; format: in vitro ADME; settings: 26 °C
T1 construct: purchased Thermo Scientific
T1 sequence (P06873 106-384): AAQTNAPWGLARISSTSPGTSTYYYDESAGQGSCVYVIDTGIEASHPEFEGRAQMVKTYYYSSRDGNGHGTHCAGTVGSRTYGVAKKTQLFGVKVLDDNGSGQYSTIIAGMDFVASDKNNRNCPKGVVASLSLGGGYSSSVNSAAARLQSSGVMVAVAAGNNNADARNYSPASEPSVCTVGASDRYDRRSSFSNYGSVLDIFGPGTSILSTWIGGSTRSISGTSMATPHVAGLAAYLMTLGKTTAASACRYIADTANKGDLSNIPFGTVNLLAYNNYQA
Protocol: For the proteinase K treatment, 30 μl of pre-formed CPP/pDNA complex solution (0.3, 0.2, 0.1 and 0.05 µg of pDNA per sample) or CPP in MQ was transferred to a black 96-well plate and 90 µl of MQ was added. After a short period of mixing, fluorescent DNA intercalating dye dilution was added (Quant-iT™ PicoGreen®, ThermoFisher Scientific) and incubated for 5 minutes at room temperature. The fluorescence was measured (Synergy MX, BioTek; λex 492 and λem 535) to quantify the initial accessibility of pDNA. Thereafter 10 μl of Proteinase K (Thermo Scientific) was added with the final enzyme concentration ~2.4 U per well. Fluorescence was measured over an indicated period at 26 °C. The readings were normalized against the fluorescence of free pDNA.

[3] = molecular target: T1, proteinase K; format: in vitro ADME
[4] = system: CHO cells; assay: Plasmid delivery (luciferase) assay in cell culture; format: cell-based; settings: 24-well plate
Protocol: If not indicated otherwise, complexes were formed using 0.5 μg of pDNA (pGL3, Promega, Sweden) mixed with a peptide at indicated charge ratio (N/P, nitrogen-to-phosphate ratio) in MQ water in a final volume of 50 μl. N/P was calculated theoretically and accounted for both the positive charges of the peptide (Table 1) and negative charges of the pDNA. Thereafter, complexes were incubated for 40 minutes at room temperature prior to each experiment.
For the plasmid delivery assay, 4 × 10^4 CHO cells were seeded 24 hours prior to each experiment in 24-well plates. Cells were treated with CPP/pDNA complexes at indicated N/P for 4 h in serum containing media, followed by the addition of 1 ml 10% serum-containing medium and incubated for another 20 hours. Thereafter, cells were washed with 1x PBS and lysed using 100 µl 0.1% Triton X-100 in PBS for 15 min at 4 °C. Luciferase activity was measured using Promega’s luciferase assay system according to the manufacturer’s protocol using a GLOMAX™ 96 microplate luminometer (Promega, Sweden) and normalized to the protein content (BioRad Protein Assay, USA).

[5] = system: BALB/c mice; assay: Side effects / lethality after i.v. injection of complexes; format: in vivo, mouse; settings: PF14/pDNA at N/P2, i.v., all experiments
Protocol: For in vivo studies, 20–50 µg of p-CMV-Luc2 (marked as pLuc in the text) per animal was mixed with a peptide at indicated N/P in MQ in a final volume of 100 µl. After 40 minutes of incubation, glucose was added to a final 5% glucose in 200 μl and immediately injected intravenously via the tail vein.
Reporter gene expression levels were evaluated post mortem 24 h after injecting the complexes into the tail vein, using male and female BALB/c mice (8-week-old). Each animal received a single 200 μl i.v. injection of the complexes. The mice were sacrificed using cervical dislocation and tissues were harvested and snap-frozen on dry ice. The whole tissues were homogenized using a Precellys®24-Dual homogenization system (Bertin Technologies, France) and lysed using 1 × Promega lysis buffer (Promega, Sweden). The content of luciferase was analyzed as described previously. Briefly, homogenized tissues were thawed and 500 µl of Promega Reporter lysis 1 × buffer was added. The samples were subsequently vortexed for 15 minutes, subjected to three consecutive freeze-thaw cycles (liquid nitrogen and 37 °C water bath), centrifuged for three minutes at 10,000 x g, 4 °C; the supernatant was removed and saved for later analysis. […] Luciferase was measured with Promega luciferase assay system, in combination with GLOMAX 96 microplate luminometer (Promega, Sweden). […]

[6] = system: lungs; settings: Cy5-labelled pDNA, i.v., 1 h post-injection, confocal microscopy of cryosections
Protocol: The physical accumulation of the complexes were assessed by using Cy5-labeled pDNA (Mirus, USA). Equal amounts of labelled pDNA were administered, regardless of the N/P ratio of the complexes (e.g. N/P4 included 20 μg of labelled pDNA, whereas in case of N/P2, 20 μg of labelled pDNA was mixed with 30 μg of unlabeled pDNA). For the histological evaluation, the lungs were inflated postmortem with 1:1 cryomatrix:PBS (O.C.T embedding matrix, Kaltek, Italy), frozen in 2-methylbutane bath on dry ice. Fresh cryo-sections (10 μm thick) were fixed with ice cold methanol, counterstained with DAPI (AppliChem) and imaged with confocal microscopy (Zeiss LSM710).

[7] = Complex stability in FBS, gel shift assay; settings: 50% FBS, 37 °C, 48 h, serum and/or triton + heparin dissociation
Protocol: Then the samples were mixed with the DNA loading dye and electrophoresed exactly as stated above in the Gel shift assay description, using 0.1 µg of pDNA per lane. ZipRuler Express DNA Ladder 2 (ThermoFisher Scientific) was added to each gel.
The stability of the complexes after incubation in FBS, visualized by gel shift assay.

## CCCCCCCCCCCCCCCCCC(=O)N[C@@H](C)C(=O)NCC(=O)N[C@@H](Cc1ccc(O)cc1)C(=O)N[C@@H](CC(C)C)C(=O)N[C@@H](CC(C)C)C(=O)NCC(=O)N[C@@H](CCCCN)C(=O)N[C@@H](CC(C)C)C(=O)N[C@@H](CC(C)C)C(=O)N[C@@H](CCCN)C(=O)N[C@@H](CCCN)C(=O)N[C@@H](CC(C)C)C(=O)N[C@@H](C)C(=O)N[C@@H](C)C(=O)N[C@@H](C)C(=O)N[C@@H](C)C(=O)N[C@@H](CC(C)C)C(=O)N[C@@H](CCCN)C(=O)N[C@@H](CCCN)C(=O)N[C@@H](CC(C)C)C(=O)N[C@@H](CC(C)C)C(N)=O [PF14] (Stearoyl-AGYLLGKLL[Orn][Orn]LAAAAL[Orn][Orn]LL-NH2)
[1]; naked peptide in 5% glucose, mouse RBC 2% final in PBS, hemoglobin absorbance 540 nm, 100% = 0.1% Triton X-100, read-out: EC50 (μM) of CPP (membrane activity, concentration required to lyse 50% of the cells)
  EC50: 0.66 µM
[1]; peptide/pDNA complexes, fixed 1 μg pDNA and varying peptide, mouse RBC 2% final, absorbance 540 nm, read-out: EC50 (μM) of CPP/pDNA (membrane activity)
  EC50: 1.43 µM
[2]; CPP/pDNA complexes at N/P2, accessible pDNA over time by intercalating dye
  stability of the complexes against proteinase K (in words): less stable particles where DNA was liberated into the solution
[2]; CPP/pDNA complexes at N/P2 in MQ, proteinase K ~2.4 U per well, accessible pDNA by PicoGreen fluorescence, normalized to free pDNA
  Proteinase K: t1/2 (min) of the complexed pDNA (95%CI): 108.3 (101.9 ± 118.4) min
[3]
  degradation of naked peptide by proteinase K (in words): easily degraded
[4]; PF14/pDNA N/P2, CHO cells
  usable pDNA dose before toxicity, N/P2: up to 2 μg
[4]; PF14/pDNA N/P4, CHO cells
  pDNA dose giving maximum transfection before toxicity, N/P4: 0.5 μg
[4]; PF14/pDNA N/P6, CHO cells
  usable pDNA dose before toxicity, N/P6: 0.125 μg
[5]
  lethality / side effects, N/P2: zero lethality
[6]
  accumulation of complexes in lungs, N/P2 (in words): significantly lower signal
  accumulation of complexes in lungs, N/P4 (in words): considerable amount of the fluorescence was observed in lungs
[7]
  pDNA migration from complexes after 48 h in serum (in words): migration of pDNA from some of the complexes could be observed
